The target of data set [1] is T1, PDE10A (Homo sapiens, UniProt Q9Y233).
T1 construct: made in house; host or cells: Sf9 insect cells (baculovirus, pVL1393)
Nature of the data set: Activity of inhibiting PDE10A activity ([3H]cAMP decomposition inhibiting test). The class given is biochemical. As to conditions: for inhibition at 1 µM: read-out: [3H] cAMP decomposition inhibition rate (%); for IC50: read-out: IC50 (concentration at which to inhibit [3H]cAMP decomposition by 50%). The method, then:
Activity of Inhibiting PDE10A Activity (^3H]cAMP Decomposition Inhibiting Test)
PCR was performed using DNAs having base sequences described in SEQ ID NO. 1 and SEQ ID NO. 2 as primers and human kidney cDNA as a template to prepare a plasmid containing amplified fragments. The plasmid was cleaved with restriction endonucleases Pst I and Xba I to obtain a Pst I-Xba I fragment of 0.7 kb.
Meanwhile, Est clone (Cosmo Bio, Tokyo) of GenBank, ACCESSION WO 4835 was cleaved with restriction endonucleases Kpn I and Pst I to obtain a Kpn I-Pst I fragment of 1.5 kb.
The resulting Pst I-Xba I fragment of 0.7 kb and Kpn I-Pst I fragment of 1.5 kb were subcloned in a Kpn I-Xba I site of pBluescript II KS(−) (STRATAGENE, La Jolla, Calif., USA),to construct a plasmid having a cDNA fragment completely including a catalyst region of PDE10A. Subsequently, the plasmid was cleaved with restriction endonucleases Kpn I and Not I to obtain a Kpn I-Not I fragment of 2.2 kb.
The resulting Kpn I-Not I fragment of 2.2 kb and a linker having a BamH I-Kpn I cleavage surface prepared by synthetic DNA having base sequences described in SEQ ID NOS. 3 and 4 were subcloned in a BamH I-Not I site of pVL1393 (PharMingen, San Diego, Calif., USA) to obtain a plasmid for preparation of Baculovirus. The plasmid contains a DNA encoding a peptide in which methionine, FLAG tag and a peptide having a 64th to 779th amino acid sequence of PDE10A [GenBank, ACCESSION NP 006652: Gene, vol. 234, p. 109 (1999), J. Biol. Chem., vol. 274, p. 18438 (1999)] are bound in the order.
The above gene recombinational manipulation was performed according to the method described in Molecular Cloning, 2nd edition, Cold Spring Harbor Laboratory Press, New York (1989).
The expression of PDE10A was conducted according to the Baculovirus expression vector system manual (PharMingen) using insect cells. As insect cells, Sf9 cells (Asahi Technoglass, Tokyo) were used. Sf9 cells were infected with a supernatant (co-transfection sup) containing PDE10A expression virus prepared according to the manual, and cultured at 27° C. for 4 days. The cells were recovered, washed with a phosphate-buffered saline (PBS), and then suspended in an extraction solution [20 mmol/L Tris-acetate (pH 7.5), 2 mmol/L MgCl2, 1 mmol/L dithiothreitol, 1 mmol/L ethylenediaminetetraacetic acid (EDTA), 0.25 mol/L sucrose, 250 unit/mL aprotinin, 40 μg/mL phenylmethylsulfonyl fluoride, and 1 μg/mL pepstatin A]. The cells were disrupted in ice with the maximum output under conditions of 5 seconds and five times using an ultrasonic disruption machine (TOMY model UR-200R, TOMY, Tokyo). A soluble fraction was obtained by centrifugation under 10,000 rpm of the fraction at 4° C. for 30 minutes, and the resulting soluble fraction was used for measuring the PDE activity.
The PDE activity was measured according to the method described in Methods Enzymol., vol. 159, p. 457 (1988).
Using [^3H]cAMP as a substrate, an enzyme reaction was conducted in a reaction solution containing 300 μL of 50 mmol/L N,N-bis (2-hydroxyethyl)-2-aminoethanesulfonic acid (pH 7.2), 1 mmol/L MgCl2 and 0.1 mmol/L ethylene glycol-bis (β-aminoethyl ether)-N,N,N′,N′-tetraacetic acid: EGTA). The concentration of the substrate was 0.2 μmol/L. To 95 μL of an enzyme dilute solution were added 5 μL of a test compound (DMSO solution) and 200 μL of a substrate solution. The mixture was incubated at 30° C. for 20 minutes, and then HCl was added to stop the reaction. The reaction product (5′-AMP) was converted to adenosine using 5′-nucleotidase, and separated the unreacted product from the reactant by DEAE-Sephadex A-25 column (Amersham Pharmacia Biotech, Uppsala, Sweden). The elute was moved to scintillation vials, 6 mL of Ultima Gold (Packard Instrument, Meriden, Conn., USA) was added, and the radioactivity was measured for 2 minutes using a liquid scintillation counter (Beckman LS6500, Beckman, Tokyo),. […]

The mark [2] stands for this setting: Test compound concentration 1 μmol/L, substrate [3H]cAMP 0.2 μmol/L.

We go through 26 molecules from US20060111368A1, “Phosphodiesterase inhibitor” (Kyowa Hakko Kogyo Co., Ltd., priority 2002, published 2006).

Structures can show the parent of a compound that is named as a salt. Where two headings read alike, the source gives them in different places.

T1 sequence (Q9Y233 340-1055): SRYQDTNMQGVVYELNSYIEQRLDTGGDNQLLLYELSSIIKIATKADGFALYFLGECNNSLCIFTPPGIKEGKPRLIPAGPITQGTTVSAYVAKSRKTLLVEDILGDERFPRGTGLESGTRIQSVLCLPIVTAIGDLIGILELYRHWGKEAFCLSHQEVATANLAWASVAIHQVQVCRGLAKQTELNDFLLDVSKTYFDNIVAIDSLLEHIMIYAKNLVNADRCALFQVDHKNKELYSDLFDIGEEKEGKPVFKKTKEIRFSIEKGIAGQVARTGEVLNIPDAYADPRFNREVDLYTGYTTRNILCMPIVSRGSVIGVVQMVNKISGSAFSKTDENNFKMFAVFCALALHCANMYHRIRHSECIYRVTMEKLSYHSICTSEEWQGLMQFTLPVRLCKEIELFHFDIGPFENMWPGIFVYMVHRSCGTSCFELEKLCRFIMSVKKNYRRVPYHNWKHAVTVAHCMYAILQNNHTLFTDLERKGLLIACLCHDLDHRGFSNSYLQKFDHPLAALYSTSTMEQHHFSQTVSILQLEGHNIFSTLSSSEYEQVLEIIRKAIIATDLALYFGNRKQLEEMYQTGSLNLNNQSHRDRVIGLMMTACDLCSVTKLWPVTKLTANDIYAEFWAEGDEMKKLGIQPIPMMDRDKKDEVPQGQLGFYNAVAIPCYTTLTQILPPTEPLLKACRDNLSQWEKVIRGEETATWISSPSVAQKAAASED

What is called melting point is the temperature, or range, at which the solid turns liquid. `COc1ccc(-c2ccc(-c3nc4ccc(F)cc4c(C(=O)O)c3C)cc2)c(OC)c1` yielded a melting point of over 300 °C.

The term inhibition denotes the percentage by which the read-out fell short of the control. Molecule `Cc1c(-c2ccc(-c3ccccc3C=O)cc2)nc2ccc(F)cc2c1C(=O)O` [Compound J, 6-Fluoro-2-(2′-formylbiphenyl-4-yl)-3-methylquinoline-4-carboxylic acid] had a melting point of over 300 °C. Moreover, the inhibition at 1 µM in data set [1] (setting [2]) was 99%. Moreover, the IC50 in data set [1] (substrate [3H]cAMP 0.2 μmol/L) was 0.016 µM.

Turning to `COc1ccc(F)cc1-c1ccc(-c2nc3ccc(F)cc3c(CO)c2C)cc1` [Compound 7, 6-Fluoro-2-(5′-fluoro-2′-methoxybiphenyl-4-yl)-4-hydroxymethyl-3-methylquinoline], the melting point lay within 202 to 203 °C. Besides, in data set [1] (setting [2]), the inhibition at 1 µM was 97%. In addition, the IC50 in data set [1] (substrate [3H]cAMP 0.2 μmol/L) came to 0.034 µM.

`Cc1c(-c2ccc(-c3ccccc3CO)cc2)nc2ccc(F)cc2c1C(=O)O` [K, 6-Fluoro-2-(2′-hydroxymethylbiphenyl-4-yl)-3-methylquinoline-4-carboxylic acid] registered a melting point of 258 to 260 °C. In addition, in data set [1] (setting [2]), the inhibition at 1 µM was 90%.

`Cc1c(-c2ccc(-c3ccccc3-c3ccccc3)cc2)nc2ccc(F)cc2c1C(N)=O` [O, 6-Fluoro-3-methyl-2-([1,1′:2′,1″-terphenyl]-4-yl)quinone-4-carboxamide] gave a melting point of 243 to 246 °C. Further, the inhibition at 1 µM in data set [1] was 94%. The IC50 in data set [1] (substrate [3H]cAMP 0.2 μmol/L) was 0.033 µM.

With `CCOc1cccc(-c2ccc(-c3nc4ccc(F)cc4c(CO)c3C)cc2)c1` [Compound 4, 2-(31-Ethoxybiphenyl-4-yl)-6-fluoro-4-hydroxymethyl-3-methylquinoline], the melting point fell in the range of 199 to 200 °C. The inhibition at 1 µM in data set [1] (setting [2]) was 83%.

On to `CC(=O)c1c(C)c(-c2ccc(-c3ccccc3-c3ccccc3)cc2)nc2ccc(F)cc12` [Compound 16, 4-Acetyl-6-fluoro-3-methyl-2-([1,1′:2′,11″-terphenyl]-4-yl)quinoline], for which, in data set [1], the inhibition at 1 µM was 80%.

For `Cc1c(-c2ccc(-c3ccccc3F)cc2)nc2ccc(F)cc2c1CO` [Compound 6, 6-Fluoro-2-(2′-fluorobiphenyl-4-yl)-4-hydroxymethyl-3-methylquinoline], the inhibition at 1 µM in data set [1] (setting [2]) was found to be 91%. Further, in data set [1] (substrate [3H]cAMP 0.2 μmol/L), the IC50 came to 0.098 µM.

In turn, `Cc1c(-c2ccc(Br)cc2)nc2ccc(F)cc2c1C(=O)O` returned a melting point of over 300 °C.

`Cc1c(-c2ccc(-c3ccccc3-c3ccccc3)cc2)nc2ccc(F)cc2c1N` showed a melting point of 227 to 229 °C.

`COc1ccccc1-c1ccc(-c2nc3ccc(F)cc3c(CO)c2C)cc1` [Compound 2, 6-Fluoro-4-hydroxymethyl-2-(2′-methoxybiphenyl-4-yl)-3-methylquinoline]: the melting point lay in the range of 178 to 179 °C. Besides, in data set [1] (setting [2]), the inhibition at 1 µM was 97%. Moreover, the IC50 in data set [1] (substrate [3H]cAMP 0.2 μmol/L) was found to be 0.066 µM.

Molecule `Cc1c(-c2ccc(Br)cc2)nc2ccc(F)cc2c1CO` [Compound 21, 2-(4-Bromophenyl)-6-fluoro-4-hydroxymethyl-3-methylquinoline] registered a melting point of 222 to 240 °C.

`COc1ccccc1N1CCN(c2nc3ccc(F)cc3c(CO)c2C)CC1` [Compound 20, 6-Fluoro-4-hydroxymethyl-2-[4-(2-methoxyphenyl)piperazin-1-yl]-3-methylquinoline] yielded a melting point of 190 to 191 °C.

As to `Cc1c(-c2ccc(-c3ccccc3-c3ccccc3)cc2)nc2ccc(F)cc2c1C` [Compound 18, 3,4-Dimethyl-6-fluoro-2-([1,1′:2′,1″-terphenyl]-4-yl)quinoline], the melting point was 194 to 195 °C. Moreover, the inhibition at 1 µM in data set [1] (setting [2]) was 97%. Moreover, the IC50 in data set [1] (substrate [3H]cAMP 0.2 μmol/L) was found to be 0.0048 µM.

`Cc1c(-c2ccc(-c3ccccc3-c3ccccc3)cc2)nc2ccc(F)cc2c1C#N` [Compound 17, 6-Fluoro-3-methyl-2-([1,1′;2′,1″-terphenyl]-4-yl)quinoline-4-carbonitrile] registered a melting point of 153 to 155 °C. The inhibition at 1 µM in data set [1] (setting [2]) turned out to be 70%. Moreover, the IC50 in data set [1] (substrate [3H]cAMP 0.2 μmol/L) amounted to 0.373 µM.

As for `Cc1c(-c2ccc(-c3ccccc3CNc3ccccc3)cc2)nc2ccc(F)cc2c1C(=O)O` [Compound N, 6-Fluoro-3-methyl-2-[(2′-phenylamino)methylbiphenyl-4-yl]quinoline-4-carboxylic acid], the melting point was 222 to 224 °C. For the same molecule, the inhibition at 1 µM in data set [1] (setting [2]) was 99%. The IC50 in data set [1] (substrate [3H]cAMP 0.2 μmol/L) came out at 0.013 µM.

The molecule `Cc1c(-c2ccc(-c3ccccc3CNCCO)cc2)nc2ccc(F)cc2c1CO` (as salt: hydrochloride) registered a melting point of 203 to 205 °C.

As for `Cc1c(-c2ccc(-c3ccccc3CN3CCN(c4ccccc4)CC3)cc2)nc2ccc(F)cc2c1CO` [Compound 11, 6-Fluoro-4-hydroxymethyl-3-methyl-2-[2′-(4-phenylpiperazin-1-yl)methylbiphenyl-4-yl]quinoline], the melting point was in the range of 154 to 156 °C. In addition, the inhibition at 1 µM in data set [1] (setting [2]) came out at 90%. Moreover, the IC50 in data set [1] (substrate [3H]cAMP 0.2 μmol/L) was found to be 0.173 µM.

Regarding `CCOc1ccccc1-c1ccc(-c2nc3ccc(F)cc3c(C(=O)O)c2C)cc1` [I, 2-(2′-Ethoxybiphenyl-4-yl)-6-fluoro-3-methylquinoline-4-carboxylic acid], the inhibition at 1 µM in data set [1] (setting [2]) was 99%. The IC50 in data set [1] (substrate [3H]cAMP 0.2 μmol/L) came to 0.0055 µM.

In the case of `COC(=O)c1c(C)c(-c2ccc(-c3ccccc3-c3ccccc3)cc2)nc2ccc(F)cc12` [Compound 15, Methyl 6-fluoro-3-methyl-2-([1,1′:2′,1″-terphenyl]-4-yl)quinoline-4-carboxylate], the melting point was in the range of 164 to 165 °C.

For the molecule `CNCc1ccccc1-c1ccc(-c2nc3ccc(F)cc3c(CO)c2C)cc1` [Compound 10, 6-Fluoro-4-hydroxymethyl-3-methyl-2-[2′-(methylamino)methylbiphenyl-4-yl]quinoline], the melting point lay in the range of 193 to 195 °C.

On to `Cc1c(-c2ccc(-c3ccccc3C=O)cc2)nc2ccc(F)cc2c1CO` [Compound 9], for which the melting point was 192 to 194 °C.

Consider `Cc1c(-c2ccc(-c3ccccc3CN3CCOCC3)cc2)nc2ccc(F)cc2c1CO` (as salt: hydrochloride) [Compound 12, 6-Fluoro-4-hydroxymethyl-3-methyl-2-(2′-morpholinomethylbiphenyl-4-yl)quinoline dihydrochloride], for which the melting point is 190 to 192 °C.

`COc1ccc(F)cc1-c1ccc(-c2nc3ccc(F)cc3c(C(=O)O)c2C)cc1` registered a melting point of over 300 °C.

On to `CCOc1ccc(-c2ccc(-c3nc4ccc(F)cc4c(CO)c3C)cc2)cc1` [Compound 5, 2-(4′-Ethoxybiphenyl-4-yl)-6-fluoro-4-hydroxymethyl-3-methylquinoline], for which the melting point was 211 to 212 °C.

`COC(=O)c1c(C)c(N2CCN(c3ccccc3OC)CC2)nc2ccc(F)cc12` [Compound 19, Methyl 6-Fluoro-2-[4-(2-methoxyphenyl)piperazin-1-yl]-3-methylquinoline-4-carboxylate] showed a melting point of 128 to 129 °C.
